# In the NIST ThermoML archive (doi:10.1016/j.tca.2013.03.025):
# ± gives the expanded uncertainty stated by the source.
# Assay: refractive index (Na D-line) (dimensionless); xn = mol fraction of the nth substance listed
# Conditions: 101 kPa, Liquid, Standard Abbe refractometry
structure (smiles),measurement,setting,value
CCCCOC(=O)C(C)O (stereo not given) [butyl 2-hydroxypropanoate] + CC(O)CO,refractive index,"288.15 K, x1 = 0.0999",1.43214 ± 0.00035
same,refractive index,"288.15 K, x1 = 0.2",1.43049 ± 0.00037
same,refractive index,"288.15 K, x1 = 0.3",1.42918 ± 0.0004
same,refractive index,"288.15 K, x1 = 0.3999",1.42809 ± 0.00043
same,refractive index,"288.15 K, x1 = 0.4998",1.42709 ± 0.00047
same,refractive index,"288.15 K, x1 = 0.6",1.42629 ± 0.00051
same,refractive index,"288.15 K, x1 = 0.6996",1.42548 ± 0.00055
same,refractive index,"288.15 K, x1 = 0.7999",1.42482 ± 0.00059
same,refractive index,"288.15 K, x1 = 0.9",1.42412 ± 0.00063
same,refractive index,"288.15 K, x1 = 1",1.42379 ± 0.00068
same,refractive index,"293.15 K, x1 = 0.0999",1.43038 ± 0.00034
same,refractive index,"293.15 K, x1 = 0.2",1.42865 ± 0.00037
same,refractive index,"293.15 K, x1 = 0.3",1.42726 ± 0.0004
same,refractive index,"293.15 K, x1 = 0.3999",1.42611 ± 0.00043
same,refractive index,"293.15 K, x1 = 0.4998",1.42506 ± 0.00047
same,refractive index,"293.15 K, x1 = 0.6",1.42421 ± 0.00051
same,refractive index,"293.15 K, x1 = 0.6996",1.42336 ± 0.00055
same,refractive index,"293.15 K, x1 = 0.7999",1.42266 ± 0.00059
same,refractive index,"293.15 K, x1 = 0.9",1.42191 ± 0.00063
same,refractive index,"293.15 K, x1 = 1",1.42152 ± 0.00068
same,refractive index,"298.15 K, x1 = 0.0999",1.42861 ± 0.00034
same,refractive index,"298.15 K, x1 = 0.2",1.42683 ± 0.00037
same,refractive index,"298.15 K, x1 = 0.3",1.42535 ± 0.0004
same,refractive index,"298.15 K, x1 = 0.3999",1.42414 ± 0.00043
same,refractive index,"298.15 K, x1 = 0.4998",1.42303 ± 0.00047
same,refractive index,"298.15 K, x1 = 0.6",1.42211 ± 0.00051
same,refractive index,"298.15 K, x1 = 0.6996",1.42124 ± 0.00055
same,refractive index,"298.15 K, x1 = 0.7999",1.42048 ± 0.00059
same,refractive index,"298.15 K, x1 = 0.9",1.4197 ± 0.00063
same,refractive index,"298.15 K, x1 = 1",1.41925 ± 0.00068
same,refractive index,"303.15 K, x1 = 0.0999",1.42682 ± 0.00034
same,refractive index,"303.15 K, x1 = 0.2",1.42494 ± 0.00037
same,refractive index,"303.15 K, x1 = 0.3",1.4234 ± 0.0004
same,refractive index,"303.15 K, x1 = 0.3999",1.42214 ± 0.00043
same,refractive index,"303.15 K, x1 = 0.4998",1.42099 ± 0.00047
same,refractive index,"303.15 K, x1 = 0.6",1.42002 ± 0.00051
same,refractive index,"303.15 K, x1 = 0.6996",1.4191 ± 0.00055
same,refractive index,"303.15 K, x1 = 0.7999",1.41831 ± 0.00059
same,refractive index,"303.15 K, x1 = 0.9",1.41749 ± 0.00063
same,refractive index,"303.15 K, x1 = 1",1.41697 ± 0.00068
same,refractive index,"308.15 K, x1 = 0.0999",1.42503 ± 0.00035
same,refractive index,"308.15 K, x1 = 0.2",1.42307 ± 0.00037
same,refractive index,"308.15 K, x1 = 0.3",1.42146 ± 0.0004
same,refractive index,"308.15 K, x1 = 0.3999",1.42013 ± 0.00043
same,refractive index,"308.15 K, x1 = 0.4998",1.41894 ± 0.00047
same,refractive index,"308.15 K, x1 = 0.6",1.4179 ± 0.00051
same,refractive index,"308.15 K, x1 = 0.6996",1.41696 ± 0.00055
same,refractive index,"308.15 K, x1 = 0.7999",1.41611 ± 0.00059
same,refractive index,"308.15 K, x1 = 0.9",1.41528 ± 0.00063
same,refractive index,"308.15 K, x1 = 1",1.4147 ± 0.00068
same,refractive index,"313.15 K, x1 = 0.0999",1.42323 ± 0.00035
same,refractive index,"313.15 K, x1 = 0.2",1.42118 ± 0.00037
same,refractive index,"313.15 K, x1 = 0.3",1.4195 ± 0.0004
same,refractive index,"313.15 K, x1 = 0.3999",1.41814 ± 0.00043
same,refractive index,"313.15 K, x1 = 0.4998",1.41687 ± 0.00047
same,refractive index,"313.15 K, x1 = 0.6",1.41575 ± 0.00051
same,refractive index,"313.15 K, x1 = 0.6996",1.41482 ± 0.00055
same,refractive index,"313.15 K, x1 = 0.7999",1.41392 ± 0.00059
same,refractive index,"313.15 K, x1 = 0.9",1.41307 ± 0.00063
same,refractive index,"313.15 K, x1 = 1",1.41241 ± 0.00068
same,refractive index,"318.15 K, x1 = 0.0999",1.42143 ± 0.00035
same,refractive index,"318.15 K, x1 = 0.2",1.41927 ± 0.00037
same,refractive index,"318.15 K, x1 = 0.3",1.41751 ± 0.0004
same,refractive index,"318.15 K, x1 = 0.3999",1.41605 ± 0.00043
same,refractive index,"318.15 K, x1 = 0.4998",1.41479 ± 0.00047
same,refractive index,"318.15 K, x1 = 0.6",1.41365 ± 0.00051
same,refractive index,"318.15 K, x1 = 0.6996",1.41265 ± 0.00055
same,refractive index,"318.15 K, x1 = 0.7999",1.41169 ± 0.00059
same,refractive index,"318.15 K, x1 = 0.9",1.41083 ± 0.00063
same,refractive index,"318.15 K, x1 = 1",1.41006 ± 0.00068
same,refractive index,"323.15 K, x1 = 0.0999",1.41962 ± 0.00034
same,refractive index,"323.15 K, x1 = 0.2",1.4173 ± 0.00037
same,refractive index,"323.15 K, x1 = 0.3",1.41556 ± 0.0004
same,refractive index,"323.15 K, x1 = 0.3999",1.41404 ± 0.00043
same,refractive index,"323.15 K, x1 = 0.4998",1.41275 ± 0.00047
same,refractive index,"323.15 K, x1 = 0.6",1.41156 ± 0.00051
same,refractive index,"323.15 K, x1 = 0.6996",1.41049 ± 0.00055
same,refractive index,"323.15 K, x1 = 0.7999",1.4095 ± 0.00059
same,refractive index,"323.15 K, x1 = 0.9",1.40859 ± 0.00063
same,refractive index,"323.15 K, x1 = 1",1.40778 ± 0.00068
